In ChEMBL document CHEMBL1201861, “Genomics of Drug Sensitity in Cancer screening data, Wellcome Trust Sanger Institute”:

Tests used:
Assay in all cases: cells
[1] = tested on: COLO-800; format: functional, cell-based, Homo sapiens; settings: Homo sapiens, COLO-800;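 further: growth inhibition of COLO-800 cells, read out with a cell viability assay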
Description: SANGER: Inhibition of human COLO-800 cell growth in a cell viability assay.

[2] = tested on: Calu-6; format: functional, cell-based, Homo sapiens; settings: Homo sapiens, Calu-6;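 further: growth of human Calu-6 cells, read out by a cell viability assay, IC50 marking inhibition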
Description: SANGER: Inhibition of human Calu-6 cell growth in a cell viability assay.

[3] = tested on: D-263MG; format: functional, cell-based, Homo sapiens; settings: Homo sapiens, D-263MG
Description: SANGER: Inhibition of human D-263MG cell growth in a cell viability assay.

[4] = tested on: D-502MG; format: functional, cell-based, Homo sapiens; settings: Homo sapiens, D-502MG
Description: SANGER: Inhibition of human D-502MG cell growth in a cell viability assay.

[5] = tested on: DMS-114; format: functional, cell-based, Homo sapiens; settings: Homo sapiens, DMS-114
[6] = tested on: DOHH-2; format: functional, cell-based, Homo sapiens; settings: Homo sapiens, DOHH-2;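 further: growth inhibition of human DOHH-2 cells, read out with a cell viability assay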
Description: SANGER: Inhibition of human DOHH-2 cell growth in a cell viability assay.

[7] = tested on: EM-2; format: functional, cell-based, Homo sapiens; settings: Homo sapiens, EM-2;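 further: growth inhibition of EM-2 cells, read out with a cell viability assay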
Description: SANGER: Inhibition of human EM-2 cell growth in a cell viability assay.

[8] = tested on: ES7; format: functional, cell-based, Homo sapiens; settings: Homo sapiens, ES7;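 further: growth inhibition of cultured human ES7 cells, read out as cell viability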
Description: SANGER: Inhibition of human ES7 cell growth in a cell viability assay.

[9] = tested on: EW-11; format: functional, cell-based, Homo sapiens; settings: Homo sapiens, EW-11;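 further: growth inhibition of human EW-11 cells, measured with a cell viability assay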
Description: SANGER: Inhibition of human EW-11 cell growth in a cell viability assay.

[10] = tested on: EW-3; format: functional, cell-based, Homo sapiens; settings: Homo sapiens, EW-3;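 further: cell viability assay read-out, IC50 reflects inhibition of growth of the EW-3 cells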
Description: SANGER: Inhibition of human EW-3 cell growth in a cell viability assay.

[11] = tested on: HAL-01; format: functional, cell-based, Homo sapiens; settings: Homo sapiens, HAL-01;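 further: growth inhibition of human HAL-01 cells, read out with a cell viability assay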
Description: SANGER: Inhibition of human HAL-01 cell growth in a cell viability assay.

[12] = tested on: HD-MY-Z; format: functional, cell-based, Homo sapiens; settings: Homo sapiens, HD-MY-Z;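 further: growth inhibition of HD-MY-Z cells, read out with a cell viability assay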
Description: SANGER: Inhibition of human HD-MY-Z cell growth in a cell viability assay.

[13] = tested on: HT; format: functional, cell-based, Homo sapiens; settings: Homo sapiens, HT
Description: SANGER: Inhibition of human HT cell growth in a cell viability assay.

[14] = tested on: HT-144; format: functional, cell-based, Homo sapiens; settings: Homo sapiens, HT-144
Description: SANGER: Inhibition of human HT-144 cell growth in a cell viability assay.

[15] = tested on: J-RT3-T3-5; format: functional, cell-based, Homo sapiens; settings: Homo sapiens, J-RT3-T3-5;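 further: cell viability assay measuring growth inhibition of human J-RT3-T3-5 cells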
Description: SANGER: Inhibition of human J-RT3-T3-5 cell growth in a cell viability assay.

[16] = tested on: K5; format: functional, cell-based, Homo sapiens; settings: Homo sapiens, K5
Description: SANGER: Inhibition of human K5 cell growth in a cell viability assay.

[17] = tested on: L-428; format: functional, cell-based, Homo sapiens; settings: Homo sapiens, L-428
Description: SANGER: Inhibition of human L-428 cell growth in a cell viability assay.

[18] = tested on: LNCaP-Clone-FGC; format: functional, cell-based, Homo sapiens; settings: Homo sapiens, LNCaP-Clone-FGC
Description: SANGER: Inhibition of human LNCaP-Clone-FGC cell growth in a cell viability assay.

[19] = tested on: LOX IMVI; format: functional, cell-based, Homo sapiens; settings: Homo sapiens, LOX IMVI
Description: SANGER: Inhibition of human LOXIMVI cell growth in a cell viability assay.

[20] = tested on: LS-411N; format: functional, cell-based, Homo sapiens; settings: Homo sapiens, LS-411N
[21] = tested on: LXF-289 cell line; format: functional, cell-based, Homo sapiens; settings: Homo sapiens, LXF-289
Description: SANGER: Inhibition of human LXF-289 cell growth in a cell viability assay.

[22] = tested on: MC116; format: functional, cell-based, Homo sapiens; settings: Homo sapiens, MC116;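 further: growth inhibition of MC116 cells, read out with a cell viability assay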
Description: SANGER: Inhibition of human MC116 cell growth in a cell viability assay.

[23] = tested on: MLMA; format: functional, cell-based, Homo sapiens; settings: Homo sapiens, MLMA;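 further: growth inhibition of MLMA cells (human), determined through a cell viability readout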
Description: SANGER: Inhibition of human MLMA cell growth in a cell viability assay.

[24] = tested on: MV4-11; format: functional, cell-based, Homo sapiens, MV-4-11; settings: Homo sapiens, MV4-11;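 further: cell viability readout measuring growth inhibition of human MV-4-11 cells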
Description: SANGER: Inhibition of human MV-4-11 cell growth in a cell viability assay.

[25] = tested on: NB12; format: functional, cell-based, Homo sapiens; settings: Homo sapiens, NB12;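 further: growth inhibition of human NB12 cells, read out by a cell viability assay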
Description: SANGER: Inhibition of human NB12 cell growth in a cell viability assay.

[26] = tested on: NCI-H1092; format: functional, cell-based, Homo sapiens; settings: Homo sapiens, NCI-H1092;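 further: cell growth inhibition measured with a cell viability assay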
Description: SANGER: Inhibition of human NCI-H1092 cell growth in a cell viability assay.

[27] = tested on: NCI-H1355; format: functional, cell-based, Homo sapiens; settings: Homo sapiens, NCI-H1355;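 further: growth inhibition of human NCI-H1355 cells, read out by a cell viability assay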
Description: SANGER: Inhibition of human NCI-H1355 cell growth in a cell viability assay.

[28] = tested on: NCI-H23; format: functional, cell-based, Homo sapiens; settings: Homo sapiens, NCI-H23;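 further: cell viability assay measuring growth inhibition of NCI-H23 cells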
Description: SANGER: Inhibition of human NCI-H23 cell growth in a cell viability assay.

[29] = tested on: NCI-H747; format: functional, cell-based, Homo sapiens; settings: Homo sapiens, NCI-H747;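 further: growth inhibition of human NCI-H747 cells, read out by a cell viability assay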
Description: SANGER: Inhibition of human NCI-H747 cell growth in a cell viability assay.

[30] = tested on: OVCAR-4; format: functional, cell-based, Homo sapiens; settings: Homo sapiens, OVCAR-4;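 further: growth inhibition of human OVCAR-4 cells, measured with a cell viability assay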
Description: SANGER: Inhibition of human OVCAR-4 cell growth in a cell viability assay.

[31] = tested on: RCC10RGB; format: functional, cell-based, Homo sapiens; settings: Homo sapiens, RCC10RGB;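 further: growth inhibition of human RCC10RGB cells, read out by a cell viability assay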
Description: SANGER: Inhibition of human RCC10RGB cell growth in a cell viability assay.

[32] = tested on: RH-1; format: functional, cell-based, Homo sapiens; settings: Homo sapiens, RH-1;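 further: growth inhibition of human RH-1 cells, read out with a cell viability assay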
Description: SANGER: Inhibition of human RH-1 cell growth in a cell viability assay.

[33] = tested on: RKO; format: functional, cell-based, Homo sapiens; settings: Homo sapiens, RKO;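 further: growth inhibition of human RKO cells, read out with a cell viability assay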
Description: SANGER: Inhibition of human RKO cell growth in a cell viability assay.

[34] = tested on: SF-126; format: functional, cell-based, Homo sapiens; settings: Homo sapiens, SF-126;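 further: growth inhibition of human SF126 cells, read out with a cell viability assay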
Description: SANGER: Inhibition of human SF126 cell growth in a cell viability assay.

[35] = tested on: SJSA-1; format: functional, cell-based, Homo sapiens; settings: Homo sapiens, SJSA-1;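 further: growth inhibition of human SJSA-1 cells, read out through a cell viability measurement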
Description: SANGER: Inhibition of human SJSA-1 cell growth in a cell viability assay.

[36] = tested on: SNB-75; format: functional, cell-based, Homo sapiens; settings: Homo sapiens, SNB-75;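 further: cell viability assay measuring growth inhibition of human SNB-75 cells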
Description: SANGER: Inhibition of human SNB75 cell growth in a cell viability assay.

[37] = tested on: TE-1; format: functional, cell-based, Homo sapiens; settings: Homo sapiens, TE-1;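 further: growth inhibition of the human TE-1 cell line, read out with a cell viability assay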
Description: SANGER: Inhibition of human TE-1 cell growth in a cell viability assay.

[38] = tested on: A498; format: functional, cell-based, Homo sapiens; settings: Homo sapiens, A498;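 further: growth inhibition of human A498 cells, read out with a cell viability assay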
Description: SANGER: Inhibition of human A498 cell growth in a cell viability assay.

[39] = tested on: A704; format: functional, cell-based, Homo sapiens; settings: Homo sapiens, A704;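 further: growth inhibition of human A704 cells, read out with a cell viability assay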
Description: SANGER: Inhibition of human A704 cell growth in a cell viability assay.

[40] = tested on: BB65-RCC; format: functional, cell-based, Homo sapiens; settings: Homo sapiens, BB65-RCC;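 further: growth inhibition of the cell line, measured with a cell viability assay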
Description: SANGER: Inhibition of human BB65-RCC cell growth in a cell viability assay.

[41] = tested on: BV-173; format: functional, cell-based, Homo sapiens; settings: Homo sapiens, BV-173
Description: SANGER: Inhibition of human BV-173 cell growth in a cell viability assay.

[42] = tested on: C8166; format: functional, cell-based, Homo sapiens; settings: Homo sapiens, C8166;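 further: growth inhibition of human C8166 cells measured by a cell viability assay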
Description: SANGER: Inhibition of human C8166 cell growth in a cell viability assay.

[43] = tested on: TE-10; format: functional, cell-based, Homo sapiens; settings: Homo sapiens, TE-10;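 further: growth inhibition of TE-10 cells, measured by a cell viability assay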
Description: SANGER: Inhibition of human TE-10 cell growth in a cell viability assay.

[44] = tested on: TE-11; format: functional, cell-based, Homo sapiens; settings: Homo sapiens, TE-11;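 further: growth inhibition of human TE-11 cells, read out by a cell viability assay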
Description: SANGER: Inhibition of human TE-11 cell growth in a cell viability assay.

[45] = tested on: TGW; format: functional, cell-based, Homo sapiens; settings: Homo sapiens, TGW;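 further: growth inhibition of human TGW cells, read out with a cell viability assay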
Description: SANGER: Inhibition of human TGW cell growth in a cell viability assay.

[46] = tested on: TK-10; format: functional, cell-based, Homo sapiens; settings: Homo sapiens, TK-10;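 further: growth inhibition of TK-10 cells, read out in a cell viability assay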
Description: SANGER: Inhibition of human TK10 cell growth in a cell viability assay.

[47] = tested on: no-11; format: functional, cell-based, Homo sapiens; settings: Homo sapiens;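 further: growth inhibition of human NO-11 cells, read out with a cell viability assay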
Description: SANGER: Inhibition of human no-11 cell growth in a cell viability assay.

CCN(CC)CCCCNc1ncc2cc(-c3cc(OC)cc(OC)c3)c(NC(=O)NC(C)(C)C)nc2n1 [PD-173074]
IC50 [1]: > 2 µM
IC50 [2]: > 2 µM
IC50 [3]: 0.712 µM
IC50 [4]: > 2 µM
IC50 [5]: 1.37 µM
IC50 [6]: > 2 µM
IC50 [7]: > 2 µM
IC50 [8]: > 2 µM
IC50 [9]: > 2 µM
IC50 [10]: > 2 µM
IC50 [11]: > 2 µM
IC50 [12]: > 2 µM
IC50 [13]: > 2 µM
IC50 [14]: > 2 µM
IC50 [15]: > 2 µM
IC50 [16]: > 2 µM
IC50 [17]: > 2 µM
IC50 [18]: > 2 µM
IC50 [19]: > 2 µM
IC50 [20]: > 2 µM
IC50 [21]: > 2 µM
IC50 [22]: > 2 µM
IC50 [23]: > 2 µM
IC50 [24]: > 2 µM
IC50 [25]: > 2 µM
IC50 [26]: > 2 µM
IC50 [27]: > 2 µM
IC50 [28]: > 2 µM
IC50 [29]: > 2 µM
IC50 [30]: > 2 µM
IC50 [31]: > 2 µM
IC50 [32]: > 2 µM
IC50 [33]: > 2 µM
IC50 [34]: > 2 µM
IC50 [35]: > 2 µM
IC50 [36]: > 2 µM
IC50 [37]: > 2 µM
IC50 [38]: > 2 µM
IC50 [39]: > 2 µM
IC50 [40]: > 2 µM
IC50 [41]: 0.846 µM
IC50 [42]: > 2 µM
IC50 [43]: > 2 µM
IC50 [44]: > 2 µM
IC50 [45]: > 2 µM
IC50 [46]: > 2 µM
IC50 [47]: > 2 µM

COc1cc2c(Nc3ccc(NC(=O)c4ccccc4)cc3)ncnc2cc1OCCCN1CCOCC1
IC50 [1]: 1.7 µM
IC50 [2]: > 4 µM
IC50 [3]: 2.71 µM
IC50 [4]: 3.97 µM
IC50 [5]: > 4 µM
IC50 [6]: 1.4 µM
IC50 [7]: 1.42 µM
IC50 [8]: > 4 µM
IC50 [9]: > 4 µM
IC50 [10]: > 4 µM
IC50 [11]: > 4 µM
IC50 [12]: > 4 µM
IC50 [13]: > 4 µM
IC50 [14]: > 4 µM
IC50 [15]: > 4 µM
IC50 [16]: > 4 µM
IC50 [17]: > 4 µM
IC50 [18]: > 4 µM
IC50 [19]: > 4 µM
IC50 [20]: > 4 µM
IC50 [21]: 2.54 µM
IC50 [22]: > 4 µM
IC50 [23]: > 4 µM
IC50 [24]: 0.796 µM
IC50 [25]: > 4 µM
IC50 [26]: > 4 µM
IC50 [27]: > 4 µM
IC50 [28]: > 4 µM
IC50 [29]: 2.03 µM
IC50 [30]: > 4 µM
IC50 [31]: > 4 µM
IC50 [32]: > 4 µM
IC50 [33]: 0.707 µM
IC50 [34]: > 4 µM
IC50 [35]: > 4 µM
IC50 [36]: > 4 µM
IC50 [37]: > 4 µM
IC50 [38]: 2.37 µM
IC50 [39]: > 4 µM
IC50 [40]: > 4 µM
IC50 [41]: 1.76 µM
IC50 [42]: > 4 µM
IC50 [43]: > 4 µM
IC50 [44]: 0.537 µM
IC50 [45]: > 4 µM
IC50 [46]: > 4 µM
IC50 [47]: > 4 µM

Cn1cnc2c(F)c(Nc3ccc(Br)cc3Cl)c(C(=O)NOCCO)cc21 [SELUMETINIB]
IC50 [1]: > 4 µM
IC50 [2]: > 4 µM
IC50 [3]: 1.18 µM
IC50 [4]: > 4 µM
IC50 [5]: > 4 µM
IC50 [6]: > 4 µM
IC50 [7]: 0.512 µM
IC50 [8]: > 4 µM
IC50 [9]: > 4 µM
IC50 [10]: 2.93 µM
IC50 [11]: 1.7 µM
IC50 [12]: > 4 µM
IC50 [13]: > 4 µM
IC50 [14]: 0.089 µM
IC50 [15]: > 4 µM
IC50 [17]: > 4 µM
IC50 [18]: > 4 µM
IC50 [19]: 0.859 µM
IC50 [20]: > 4 µM
IC50 [21]: > 4 µM
IC50 [22]: > 4 µM
IC50 [23]: > 4 µM
IC50 [24]: 0.575 µM
IC50 [25]: > 4 µM
IC50 [26]: > 4 µM
IC50 [27]: > 4 µM
IC50 [28]: > 4 µM
IC50 [29]: 0.351 µM
IC50 [30]: > 4 µM
IC50 [31]: > 4 µM
IC50 [32]: > 4 µM
IC50 [33]: 0.248 µM
IC50 [34]: > 4 µM
IC50 [35]: 3.78 µM
IC50 [36]: > 4 µM
IC50 [37]: > 4 µM
IC50 [38]: > 4 µM
IC50 [39]: > 4 µM
IC50 [40]: 1.84 µM
IC50 [41]: 0.748 µM
IC50 [42]: > 4 µM
IC50 [43]: > 4 µM
IC50 [44]: > 4 µM
IC50 [45]: > 4 µM
IC50 [46]: > 4 µM
IC50 [47]: > 4 µM
